Results: patent publication US11111220B2, “Propanamine derivatives for treating pain and pain related conditions” (ESTEVE PHARMACEUTICALS, S.A., priority 2017, dated 2021)

Biological target: Human α2δ-1 Subunit of Cav2.2 Calcium Channel (Homo sapiens, UniProt P54289)
Experiment: Binding assay to human α2δ-1 subunit of Cav2.2 calcium channel ([3H]-Gabapentin)
Conditions: Table 1; human α2δ-1 enriched membranes, 15 nM [3H]-Gabapentin; read-out: Ki(nM) alpha2delta Hum
Protocol: Binding Assay to Human α2δ-1 Subunit of Cav2.2 Calcium Channel.
Human α2δ-1 enriched membranes (2.5 μg) were incubated with 15 nM of radiolabeled [3H]-Gabapentin in assay buffer containing Hepes-KOH 10 mM, pH 7.4.
NSB (non specific binding) was measured by adding 10 μM pregabalin. The binding of the test compound was measured in five different concentrations. After 60 min incubation at 27° C., binding reaction was terminated by filtering through Multiscreen GF/C (Millipore) presoaked in 0.5% polyethyleneimine in Vacuum Manifold Station, followed by 3 washes with ice-cold filtration buffer containing 50 mM Tris-HCl, pH 7.4.
Filter plates were dried at 60° C. for 1 hour and 30 μl of scintillation cocktail were added to each well before radioactivity reading.
Readings were performed in a Trilux 1450 Microbeta radioactive counter (Perkin Elmer).

Chain of Human α2δ-1 Subunit of Cav2.2 Calcium Channel (P54289 25-1103): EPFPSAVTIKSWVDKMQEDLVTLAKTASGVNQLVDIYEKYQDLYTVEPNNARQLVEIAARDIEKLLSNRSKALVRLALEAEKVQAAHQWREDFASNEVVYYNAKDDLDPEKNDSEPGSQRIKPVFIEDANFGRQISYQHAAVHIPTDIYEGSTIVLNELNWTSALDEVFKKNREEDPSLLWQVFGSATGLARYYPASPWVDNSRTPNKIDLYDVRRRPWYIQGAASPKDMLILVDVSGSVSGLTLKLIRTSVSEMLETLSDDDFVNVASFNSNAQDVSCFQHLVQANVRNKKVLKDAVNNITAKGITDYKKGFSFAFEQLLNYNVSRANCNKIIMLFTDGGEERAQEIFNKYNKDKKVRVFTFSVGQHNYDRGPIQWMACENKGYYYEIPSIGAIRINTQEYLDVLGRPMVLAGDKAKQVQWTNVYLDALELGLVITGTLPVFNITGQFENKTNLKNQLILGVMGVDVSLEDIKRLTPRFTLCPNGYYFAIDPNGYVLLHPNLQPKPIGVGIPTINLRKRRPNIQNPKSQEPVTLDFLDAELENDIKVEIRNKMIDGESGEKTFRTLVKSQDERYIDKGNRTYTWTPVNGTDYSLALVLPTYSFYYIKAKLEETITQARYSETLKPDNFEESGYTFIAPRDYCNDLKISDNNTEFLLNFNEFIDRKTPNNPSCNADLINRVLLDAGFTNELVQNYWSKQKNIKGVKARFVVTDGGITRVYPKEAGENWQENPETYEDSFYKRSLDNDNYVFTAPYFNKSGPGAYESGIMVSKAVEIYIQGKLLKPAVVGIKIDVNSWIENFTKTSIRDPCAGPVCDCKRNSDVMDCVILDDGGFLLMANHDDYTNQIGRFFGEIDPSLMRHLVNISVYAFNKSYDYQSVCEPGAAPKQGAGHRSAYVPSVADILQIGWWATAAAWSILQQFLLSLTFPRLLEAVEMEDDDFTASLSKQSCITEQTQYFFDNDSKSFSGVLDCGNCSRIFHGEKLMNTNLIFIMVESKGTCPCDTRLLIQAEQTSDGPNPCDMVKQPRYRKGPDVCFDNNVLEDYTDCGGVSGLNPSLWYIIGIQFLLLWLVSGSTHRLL

Ki	Structure (SMILES)
100 to 500 nM	CCN(Cc1ccccc1)Cc1cccc(OC(CCNC)c2cccs2)c1 (centres unmarked) [Example 1, 3-(3-((Benzyl(ethyl)amino)methyl)phenoxy)-N-methyl-3-(thiophen-2-yl)propan-1-amine]
≥ 3000 nM	CNCCC(Oc1cccc(C(=O)NCc2ccccn2)c1)c1cccs1 (centres unmarked) [Example 7, 3-(3-(Methylamino)-1-(thiophen-2-yl)propoxy)-N-(pyridin-2-ylmethyl)benzamide]
500 to 3000 nM	CNCCC(Oc1cccc(C(=O)Nc2cccnc2)c1)c1cccs1 (centres unmarked) [Example 8, 3-(3-(Methylamino)-1-(thiophen-2-yl)propoxy)-N-(pyridin-3-yl)benzamide]
500 to 3000 nM	CNCCC(Oc1cccc(C(=O)Nc2cccc(-c3nnc(C)o3)c2)c1)c1cccs1 (centres unmarked) [Example 9, N-(3-(5-methyl-1,3,4-oxadiazol-2-yl)phenyl)-3-(3-(methylamino)-1-(thiophen-2-yl)propoxy)benzamide]
500 to 3000 nM	CNCCC(Oc1cccc(C(=O)Nc2ccccc2CN(C)C)c1)c1cccs1 (centres unmarked) [Example 11, N-(2-((dimethylamino)methyl)phenyl)-3-(3-(methylamino)-1-(thiophen-2-yl)propoxy)benzamide]
500 to 3000 nM	CNCCC(Oc1cccc(C(=O)Nc2ccccc2N(C)C)c1)c1cccs1 (centres unmarked) [Example 12, N-(2-(dimethylamino)phenyl)-3-(3-(methylamino)-1-(thiophen-2-yl)propoxy)benzamide]
≥ 3000 nM	CCNc1ccc(NC(=O)c2cccc(OC(CCNC)c3ccccc3)c2)cn1 (centres unmarked) [Example 21, N-(6-(ethylamino)pyridin-3-yl)-3-(3-(methylamino)-1-phenylpropoxy)benzamide]
≥ 3000 nM	CNCCC(Oc1cccc(N(C)C(=O)c2ccccc2)c1)c1ccccc1 (centres unmarked) [Example 23, N-methyl-N-(3-(3-(methylamino)-1-phenylpropoxy)phenyl) benzamide]
≥ 3000 nM	CNCCC(Oc1cccc(N(C)C(C)=O)c1)c1ccccc1 (centres unmarked) [Example 24, N-methyl-N-(3-(3-(methylamino)-1-phenylpropoxy)phenyl)acetamide]
≥ 3000 nM	CCCC(=O)N(C)c1cccc(OC(CCNC)c2ccccc2)c1 (centres unmarked) [Example 25, N-methyl-N-(3-(3-(methylamino)-1-phenylpropoxy)phenyl)butyramide]
≥ 3000 nM	CNCCC(Oc1cccc(N(C)C(=O)c2cccnc2)c1)c1ccccc1 (centres unmarked) [Example 26, N-methyl-N-(3-(3-(methylamino)-1-phenylpropoxy)phenyl)nicotinamide]
≥ 3000 nM	CCNc1ncc(C(=O)N(C)c2cccc(OC(CCNC)c3ccccc3)c2)c(N2CCCC2)n1 (centres unmarked) [Example 29, 2-(Ethylamino)-N-methyl-N-(3-(3-(methylamino)-1-phenylpropoxy)phenyl)-4-(pyrrolidin-1-yl)pyrimidine-5-carboxamide]
500 to 3000 nM	CCNc1ncc(C(=O)N(C)c2cccc(OC(CCNC)c3cccs3)c2)c(N2CCCC2)n1 (centres unmarked) [Example 30, 2-(Ethylamino)-N-methyl-N-(3-(3-(methylamino)-1-(thiophen-2-yl)propoxy)phenyl)-4-(pyrrolidin-1-yl)pyrimidine-5-carboxamide]
≥ 3000 nM	CNCCC(OCc1cccc(N(C)C(=O)c2ccccc2)c1)c1ccccc1 (centres unmarked) [Example 31, N-methyl-N-(3-((3-(methylamino)-1-phenylpropoxy)methyl)phenyl)benzamide]
≥ 3000 nM	CNCCC(OCc1cccc(N(C)C(=O)c2cnc(OC)nc2)c1)c1ccccc1 (centres unmarked) [Example 33, 2-Methoxy-N-methyl-N-(3-((3-(methylamino)-1-phenylpropoxy)methyl)phenyl)pyrimidine-5-carboxamide]
≥ 3000 nM	CNCCC(OCc1cccc(N(C)C(=O)c2cncnc2)c1)c1ccccc1 (centres unmarked) [Example 34, N-methyl-N-(3-((3-(methylamino)-1-phenylpropoxy)methyl)phenyl)pyrimidine-5-carboxamide]
≥ 3000 nM	CNCCC(OCc1cccc(N(C)C(=O)c2ccccn2)c1)c1ccccc1 (centres unmarked) [Example 36, N-methyl-N-(3-((3-(methylamino)-1-phenylpropoxy)methyl)phenyl)picolinamide]
≥ 3000 nM	CNCCC(OCc1cccc(NC(=O)c2cccnc2)c1)c1ccccc1 (centres unmarked) [Example 40, N-(3-((3-(methylamino)-1-phenylpropoxy)methyl)phenyl)nicotinamide]
≥ 3000 nM	CNCCC(OCc1cccc(NC(=O)c2cncnc2)c1)c1ccccc1 (centres unmarked) [Example 42, N-(3-((3-(methylamino)-1-phenylpropoxy)methyl)phenyl)pyrimidine-5-carboxamide]
≥ 3000 nM	CNCCC(OCc1cccc(NC(=O)c2cnc(SC)nc2)c1)c1ccccc1 (centres unmarked) [Example 44, N-(3-((3-(methylamino)-1-phenylpropoxy)methyl)phenyl)-2-(methylthio)pyrimidine-5-carboxamide]
500 to 3000 nM	CCNc1ncc(C(=O)Nc2cccc(COC(CCNC)c3ccccc3)c2)c(N2CCCC2)n1 (centres unmarked) [Example 45, 2-(Ethylamino)-N-(3-((3-(methylamino)-1-phenylpropoxy)methyl)phenyl)-4-(pyrrolidin-1-yl)pyrimidine-5-carboxamide]
≥ 3000 nM	CNCCC(OCc1cccc(NCc2ccccc2)c1)c1ccccc1 (centres unmarked) [Example 52, N-benzyl-3-((3-(methylamino)-1-phenylpropoxy)methyl)aniline]
≥ 3000 nM	CCN(Cc1cccc(OC(CCNC)c2cccs2)c1)C(=O)c1ccccc1 (centres unmarked) [Example 56, N-ethyl-N-(3-(3-(methylamino)-1-(thiophen-2-yl)propoxy)benzyl) benzamide]
≥ 3000 nM	CNCCC(OCc1cccc(Nc2ncccn2)c1)c1ccccc1 (centres unmarked) [Example 59, N-(3-((3-(methylamino)-1-phenylpropoxy)methyl)phenyl)pyrimidin-2-amine]

More lines, now with the values behind:

Structure (SMILES)	Ki
CNCCC(Oc1cccc(CNC)c1)c1cccs1 (centres unmarked) [Example 3, N-methyl-3-(3-((methylamino)methyl)phenoxy)-3-(thiophen-2-yl)propan-1-amine]	100 to 500 nM
CNCCC(Oc1cccc(CN(C)C)c1)c1cccs1 (centres unmarked) [Example 4, 3-(3-((Dimethylamino)methyl)phenoxy)-N-methyl-3-(thiophen-2-yl)propan-1-amine]	100 to 500 nM
CCNCc1cccc(OC(CCNC)c2cccs2)c1 (centres unmarked) [Example 5, 3-(3-((Ethylamino)methyl)phenoxy)-N-methyl-3-(thiophen-2-yl)propan-1-amine]	100 to 500 nM
CNCCC(Oc1cccc(C(=O)NCc2ccccc2)c1)c1cccs1 (centres unmarked) [Example 10, N-benzyl-3-(3-(methylamino)-1-(thiophen-2-yl)propoxy)benzamide]	500 to 3000 nM
CNCCC(Oc1cccc(C(=O)NC)c1)c1ccccc1 (centres unmarked) [Example 16, N-methyl-3-(3-(methylamino)-1-phenylpropoxy)benzamide]	≥ 3000 nM
CCNC(=O)c1cccc(OC(CCNC)c2ccccc2)c1 (centres unmarked) [Example 19, N-ethyl-3-(3-(methylamino)-1-phenylpropoxy)benzamide]	≥ 3000 nM
CNCCC(OCc1cccc(N(C)C(=O)c2cccnc2)c1)c1ccccc1 (centres unmarked) [Example 32, N-methyl-N-(3-((3-(methylamino)-1-phenylpropoxy)methyl)phenyl)nicotinamide]	≥ 3000 nM
CNCCC(OCc1cccc(N(C)C(=O)c2cnc(SC)nc2)c1)c1ccccc1 (centres unmarked) [Example 35, N-methyl-N-(3-((3-(methylamino)-1-phenylpropoxy)methyl)phenyl)-2-(methylthio)pyrimidine-5-carboxamide]	≥ 3000 nM
CCNc1ncc(C(=O)N(C)c2cccc(COC(CCNC)c3ccccc3)c2)c(N2CCCC2)n1 (centres unmarked) [Example 37, 2-(Ethylamino)-N-methyl-N-(3-((3-(methylamino)-1-phenylpropoxy)methyl)phenyl)-4-(pyrrolidin-1-yl)pyrimidine-5-carboxamide]	500 to 3000 nM
CNCCC(OCc1cccc(NC(=O)c2ccccc2N(C)C)c1)c1cccs1 (centres unmarked) [Example 47, 2-(Dimethylamino)-N-(3-((3-(methylamino)-1-(thiophen-2-yl)propoxy)methyl)phenyl)benzamide]	≥ 3000 nM
CCNc1ncc(C(=O)Nc2cccc(COC(CCNC)c3cccs3)c2)c(N2CCCC2)n1 (centres unmarked) [Example 49, 2-(Ethylamino)-N-(3-((3-(methylamino)-1-(thiophen-2-yl)propoxy)methyl)phenyl)-4-(pyrrolidin-1-yl)pyrimidine-5-carboxamide]	500 to 3000 nM
CCNc1ncc(C(=O)Nc2cccc(OC(CCNC)c3cccs3)c2)c(N2CCCC2)n1 (centres unmarked) [Example 51, 2-(Ethylamino)-N-(3-(3-(methylamino)-1-(thiophen-2-yl)propoxy)phenyl)-4-(pyrrolidin-1-yl)pyrimidine-5-carboxamide]	500 to 3000 nM
CNCCC(OCc1cccc(NCc2cncnc2)c1)c1ccccc1 (centres unmarked) [Example 53, 3-((3-(Methylamino)-1-phenylpropoxy)methyl)-N-(pyrimidin-5-ylmethyl)aniline]	≥ 3000 nM
CN(C)CCC(OCc1cccc(NC(=O)c2ccccc2)c1)c1cccs1 (centres unmarked) [Example 54, N-(3-((3-(dimethylamino)-1-(thiophen-2-yl)propoxy)methyl)phenyl) benzamide]	≥ 3000 nM
CN(C)CCC(OCc1cccc(NC(=O)c2ccccc2N(C)C)c1)c1cccs1 (centres unmarked) [Example 55, 2-(Dimethylamino)-N-(3-((3-(dimethylamino)-1-(thiophen-2-yl)propoxy)methyl)phenyl)benzamide]	≥ 3000 nM
CNCCC(OCc1cccc(N(Cc2ccccc2)C(C)=O)c1)c1ccccc1 (centres unmarked) [Example 57, N-benzyl-N-(3-((3-(methylamino)-1-phenylpropoxy)methyl)phenyl) acetamide]	≥ 3000 nM
CCNc1ncc(C(=O)N(C)c2cccc(OC(CCNC)c3ccccc3)c2)cn1 (centres unmarked) [Example 60, 2-(Ethylamino)-N-methyl-N-(3-(3-(methylamino)-1-phenylpropoxy)phenyl)pyrimidine-5-carboxamide]	≥ 3000 nM
